Experimental data: patent publication US20060069132A1, “Azolecarboxamide herbicides” (priority 2004, published 2006)

Tests used:
wild oat = experiment: Test B postemergence herbicide test; type: in vivo, Avena fatua; conditions: scale 0 (no effect) to 100 (complete control)
In short: (§1)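 Plants grow to 1- to 4-leaf stage (2–18 cm) for postemergence spraying, or to 2-leaf stage for the paddy test. Formulated compound is applied. Greenhouse holding lasts 13–15 days. Response is scored visually relative to controls, 0 no effect to 100 complete control; a dash means no result.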

rice = experiment: Test B flooded paddy test; type: in vivo, Oryza sativa; conditions: 1000 g ai/ha, scale 0 to 100 (0 no effect, 100 complete control)
In short: as §1

velvetleaf = experiment: Test B pre-/postemergence herbicide test; type: in vivo, Abutilon theophrasti
In short: (§2)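 Pre: seeds sown, then sprayed. Post: 1–4-leaf plants (2–18 cm) sprayed at the same time. Paddy: flooded, treated at 2-leaf stage. Formulation: non-phytotoxic solvent with surfactant. Greenhouse 13–15 days; visual 0–100 score relative to controls.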

large crabgrass = experiment: Test B pre-/postemergence herbicide test; type: in vivo, Digitaria sanguinalis
In short: as §2

ducksalad = experiment: Test B flooded paddy test; type: in vivo, Heteranthera limosa; conditions: 1000 g ai/ha, scale 0 to 100 (0 no effect, 100 complete control)
In short: (§3)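 Visual control ratings, 0–100 versus untreated controls, taken after 13 to 15 days in the greenhouse. Blackgrass received a postemergence spray at the 1- to 4-leaf stage (2–18 cm); ducksalad, umbrella sedge and barnyardgrass were flooded-paddy treated at 2 leaves.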

[1] = system: small flower umbrella sedge; experiment: Test B flooded paddy test; type: in vivo, Cyperus difformis; conditions: 1000 g ai/ha, scale 0 to 100 (0 no effect, 100 complete control)
In short: as §3

lambsquarters = experiment: Test B pre-/postemergence herbicide test; type: in vivo, Chenopodium album
In short: as §2

blackgrass = experiment: Test B postemergence herbicide test; type: in vivo, Alopecurus myosuroides
In short: as §3

morningglory = experiment: Test B pre-/postemergence herbicide test; type: in vivo, Ipomoea coccinea
In short: (§4)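 Response was scored visually 13 to 15 days after treatment against untreated greenhouse controls, 0 meaning no effect and 100 complete control. Formulations (solvent mixture plus surfactant) went onto soil after planting, onto foliage of 1- to 4-leaf plants, and onto 2-leaf plants in a flooded paddy set including rice and barnyardgrass.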

barnyardgrass [2] = experiment: Test B pre-/postemergence herbicide test; type: in vivo, Echinochloa crus-galli
In short: as §4

Surinam grass = experiment: Test B pre-/postemergence herbicide test; type: in vivo, Urochloa decumbens
In short: as §2

corn = experiment: Test B pre-/postemergence herbicide test; type: in vivo, Zea mays
In short: as §2

cocklebur = experiment: Test B pre-/postemergence herbicide test; type: in vivo, Xanthium strumarium
In short: as §4

barnyardgrass [3] = experiment: Test B flooded paddy test; type: in vivo, Echinochloa crus-galli; conditions: 1000 g ai/ha, scale 0 to 100 (0 no effect, 100 complete control)
In short: as §3

giant foxtail = experiment: Test B pre-/postemergence herbicide test; type: in vivo, Setaria faberi
In short: as §2

pigweed = experiment: Test B pre-/postemergence herbicide test; type: in vivo, Amaranthus retroflexus
In short: as §2

wheat = experiment: Test B postemergence herbicide test; type: in vivo, Triticum aestivum; design: key to Wheat plant response rating: 0 = no effect, 100 = complete control
In short: as §1

[4] = 500 g ai/ha, visual rating 0-100, 0 no effect, 100 complete control, preemergence
[5] = Postemergence, 500 g ai/ha, visual rating after 13 to 15 days, scale 0 (no effect) to 100 (complete control)
[6] = postemergence, 125 g ai/ha, visual rating, scale 0 (no effect) to 100 (complete control)
[7] = preemergence, 125 g ai/ha, 0 to 100 scale, 0 is no effect, 100 is complete control
[8] = 125 g ai/ha, visual rating, postemergence
[9] = 125 g ai/ha, 0 is no effect, 100 is complete control, preemergence
[10] = 125 g ai/ha, visual rating, scale 0 (no effect) to 100 (complete control), postemergence
[11] = Postemergence, 500 g ai/ha, scale 0 (no effect) to 100 (complete control)
[12] = 500 g ai/ha, scale 0 to 100, 0 no effect, 100 complete control, preemergence
[13] = postemergence, 500 g ai/ha, scale 0 to 100, 0 is no effect, 100 is complete control

COc1ccc(C(C)=NO)cc1NC(=O)c1cc(C(C)(C)C)nn1C [Compound 104]
20: Plant response rating, Lambsquarters (lambsquarters; [5]) | Plant response rating, Morningglory (morningglory; [4]) | Plant response rating, Surinam Grass (Surinam grass; [4]) | Plant response rating, Foxtail, Giant (giant foxtail; [4])
70: Sedge, Umbrella plant response rating ([1]; visual rating, 13 to 15 days) | Plant response rating, Pigweed (pigweed; [4])
10: Plant response rating, Surinam Grass (Surinam grass; [5]) | Plant response rating, Pigweed (pigweed; [5]) | Pigweed plant response rating (pigweed; [6])
90: Plant response rating, Crabgrass, Large (large crabgrass; [4])
0: Plant response rating, Oat, Wild (wild oat; Postemergence, 500 g ai/ha, visual rating after 13 to 15 days) | Oat, Wild plant response rating (wild oat; postemergence, 125 g ai/ha, visual rating) | Rice plant response rating (rice; visual rating, 13 to 15 days) | Plant response rating, Velvetleaf (velvetleaf; [4]) | Plant response rating, Velvetleaf (velvetleaf; [5]) | Velvetleaf plant response rating (velvetleaf; [6]) | Plant response rating, Velvetleaf (velvetleaf; [7]) | Plant response rating, Crabgrass, Large (large crabgrass; [5]) | Crabgrass, Large plant response rating (large crabgrass; [6]) | Lambsquarters plant response rating (lambsquarters; [6]) | Plant response rating, Blackgrass (blackgrass; [5]) | Blackgrass plant response rating (blackgrass; [6]) | Plant response rating, Morningglory (morningglory; [5]) | Morningglory plant response rating (morningglory; [6]) | Plant response rating, Morningglory (morningglory; [7]) | Plant response rating, Barnyardgrass (barnyardgrass [2]; [5]) | Barnyardgrass plant response rating (barnyardgrass [2]; [6]) | Plant response rating, Barnyardgrass (barnyardgrass [2]; [7]) | Surinam Grass plant response rating (Surinam grass; [6]) | Plant response rating, Surinam Grass (Surinam grass; [7]) | Plant response rating, Corn (corn; [4]) | Plant response rating, Corn (corn; [5]) | Corn plant response rating (corn; [6]) | Plant response rating, Corn (corn; [7]) | Plant response rating, Cocklebur (cocklebur; [4]) | Plant response rating, Cocklebur (cocklebur; [5]) | Cocklebur plant response rating (cocklebur; [6]) | Plant response rating, Cocklebur (cocklebur; [7]) | Barnyardgrass plant response rating (barnyardgrass [3]; visual rating, 13 to 15 days) | Plant response rating, Foxtail, Giant (giant foxtail; [5]) | Foxtail, Giant plant response rating (giant foxtail; [6]) | Plant response rating, Foxtail, Giant (giant foxtail; [7]) | Plant response rating, Wheat (wheat; [5]) | Wheat plant response rating (wheat; [6])
60: Ducksalad plant response rating (ducksalad; visual rating, 13 to 15 days) | Plant response rating, Lambsquarters (lambsquarters; [7]) | Plant response rating, Pigweed (pigweed; [7])
80: Plant response rating, Crabgrass, Large (large crabgrass; [7]) | Plant response rating, Lambsquarters (lambsquarters; [4]) | Plant response rating, Barnyardgrass (barnyardgrass [2]; [4])

COC(=O)c1ccc(F)c(NC(=O)c2nn(C(C)C)nc2C)c1 [Compound 398]
20: Velvetleaf plant response rating (velvetleaf; [10]) | Morningglory plant response rating (morningglory; [11]) | Corn plant response rating (corn; [11]) | Foxtail, Giant plant response rating (giant foxtail; [10])
60: Velvetleaf plant response rating (velvetleaf; [11])
80: Sedge, Umbrella plant response rating [1]
0: Oat, Wild plant response rating (wild oat; [8]) | Oat, Wild plant response rating (wild oat; Postemergence, 500 g ai/ha) | Plant response rating (0 to 100 scale), Velvetleaf (velvetleaf; [9]) | Plant response rating (0 to 100 scale), Crabgrass, Large (large crabgrass; [9]) | Crabgrass, Large plant response rating (large crabgrass; [10]) | Ducksalad plant response rating (ducksalad) | Plant response rating (0 to 100 scale), Lambsquarters (lambsquarters; [9]) | Blackgrass plant response rating (blackgrass; [10]) | Plant response rating (0 to 100 scale), Morningglory (morningglory; [9]) | Morningglory plant response rating (morningglory; [10]) | Plant response rating (0 to 100 scale), Barnyardgrass (barnyardgrass [2]; [9]) | Barnyardgrass plant response rating (barnyardgrass [2]; [10]) | Barnyardgrass plant response rating (barnyardgrass [2]; [11]) | Plant response rating (0 to 100 scale), Surinam Grass (Surinam grass; [9]) | Plant response rating (0 to 100 scale), Corn (corn; [9]) | Corn plant response rating (corn; [10]) | Plant response rating (0 to 100 scale), Cocklebur (cocklebur; [9]) | Cocklebur plant response rating (cocklebur; [10]) | Barnyardgrass plant response rating (barnyardgrass [3]) | Plant response rating (0 to 100 scale), Foxtail, Giant (giant foxtail; [9]) | Plant response rating (0 to 100 scale), Pigweed (pigweed; [9]) | Pigweed plant response rating (pigweed; [10]) | Wheat plant response rating (wheat; [10]) | Wheat plant response rating (wheat; [12])
10: Rice plant response rating (rice) | Crabgrass, Large plant response rating (large crabgrass; [11]) | Lambsquarters plant response rating (lambsquarters; [10]) | Lambsquarters plant response rating (lambsquarters; [11]) | Blackgrass plant response rating (blackgrass; [11]) | Surinam Grass plant response rating (Surinam grass; [10]) | Surinam Grass plant response rating (Surinam grass; [11]) | Cocklebur plant response rating (cocklebur; [11]) | Pigweed plant response rating (pigweed; [11]) | Wheat plant response rating (wheat; [11])
30: Foxtail, Giant plant response rating (giant foxtail; [11])

CCc1nn(C(C)(C)C)nc1C(=O)Nc1cc(C(=O)N2CCCCC2)ccc1F [Compound 381]
10: Oat, Wild plant response rating (wild oat; [8]) | Plant response rating (0 to 100 scale), Velvetleaf (velvetleaf; [9]) | Velvetleaf plant response rating (velvetleaf; [10]) | Crabgrass, Large plant response rating (large crabgrass; [10]) | Plant response rating (0 to 100 scale), Barnyardgrass (barnyardgrass [2]; [9]) | Surinam Grass plant response rating (Surinam grass; [10]) | Corn plant response rating (corn; [13]) | Barnyardgrass plant response rating (barnyardgrass [3]) | Plant response rating (0 to 100 scale), Foxtail, Giant (giant foxtail; [9]) | Foxtail, Giant plant response rating (giant foxtail; [10]) | Wheat plant response rating (wheat; [10])
70: Plant response rating (0 to 100 scale), Crabgrass, Large (large crabgrass; [9]) | Ducksalad plant response rating (ducksalad) | Sedge, Umbrella plant response rating [1] | Lambsquarters plant response rating (lambsquarters; [10])
0: Plant response rating (0 to 100 scale), Morningglory (morningglory; [9]) | Barnyardgrass plant response rating (barnyardgrass [2]; [10]) | Barnyardgrass plant response rating (barnyardgrass [2]; [13]) | Plant response rating (0 to 100 scale), Corn (corn; [9]) | Corn plant response rating (corn; [10]) | Plant response rating (0 to 100 scale), Cocklebur (cocklebur; [9]) | Plant response rating (0 to 100 scale), Pigweed (pigweed; [9])
20: Oat, Wild plant response rating (wild oat; Postemergence, 500 g ai/ha) | Crabgrass, Large plant response rating (large crabgrass; [13]) | Blackgrass plant response rating (blackgrass; [10]) | Morningglory plant response rating (morningglory; [10]) | Plant response rating (0 to 100 scale), Surinam Grass (Surinam grass; [9]) | Cocklebur plant response rating (cocklebur; [10]) | Cocklebur plant response rating (cocklebur; [13]) | Foxtail, Giant plant response rating (giant foxtail; [13]) | Pigweed plant response rating (pigweed; [10]) | Wheat plant response rating (wheat; [12]) | Wheat plant response rating (wheat; [11])
40: Velvetleaf plant response rating (velvetleaf; [11]) | Plant response rating (0 to 100 scale), Lambsquarters (lambsquarters; [9]) | Surinam Grass plant response rating (Surinam grass; [11])
30: Blackgrass plant response rating (blackgrass; [13]) | Pigweed plant response rating (pigweed; [11])
60: Rice plant response rating (rice)
80: Lambsquarters plant response rating (lambsquarters; [11]) | Morningglory plant response rating (morningglory; [11])
